COC(=O)CC[C@H](N)C(=O)O
solubility (mole fraction) (in acetone, 283.15 K): 5.18e-05 | solubility (mole fraction) (in acetone, 288.15 K): 9.7e-05 | solubility (mole fraction) (in acetone, 293.15 K): 0.000148 | solubility (mole fraction) (in acetone, 298.15 K): 0.000221 | solubility (mole fraction) (in acetone, 303.15 K): 0.000292 | solubility (mole fraction) (in acetone, 308.15 K): 0.000377 | solubility (mole fraction) (in acetone, 313.15 K): 0.000438 | solubility (mole fraction) (in acetone, 318.15 K): 0.000516 | solubility (mole fraction) (in acetone, 323.15 K): 0.000572 | solubility (mole fraction) (in ethanol, 283.15 K): 0.000116 | solubility (mole fraction) (in ethanol, 288.15 K): 0.000147 | solubility (mole fraction) (in ethanol, 293.15 K): 0.000177 | solubility (mole fraction) (in ethanol, 298.15 K): 0.000212 | solubility (mole fraction) (in ethanol, 303.15 K): 0.000245 | solubility (mole fraction) (in ethanol, 308.15 K): 0.000272 | solubility (mole fraction) (in ethanol, 313.15 K): 0.000307 | solubility (mole fraction) (in ethanol, 318.15 K): 0.000348 | solubility (mole fraction) (in ethanol, 323.15 K): 0.000383 | solubility (mole fraction) (in isopropanol, 283.15 K): 8.34e-05 | solubility (mole fraction) (in isopropanol, 288.15 K): 0.000104 | solubility (mole fraction) (in isopropanol, 293.15 K): 0.000124 | solubility (mole fraction) (in isopropanol, 298.15 K): 0.000144 | solubility (mole fraction) (in isopropanol, 303.15 K): 0.000166 | solubility (mole fraction) (in isopropanol, 308.15 K): 0.000196 | solubility (mole fraction) (in isopropanol, 313.15 K): 0.000217 | solubility (mole fraction) (in isopropanol, 318.15 K): 0.000245 | solubility (mole fraction) (in isopropanol, 323.15 K): 0.000272 | solubility (mole fraction) (in methanol, 283.15 K): 0.00115 | solubility (mole fraction) (in methanol, 288.15 K): 0.00122 | solubility (mole fraction) (in methanol, 293.15 K): 0.0013 | solubility (mole fraction) (in methanol, 298.15 K): 0.00138 | solubility (mole fraction) (in methanol, 303.15 K): 0.00145 | solubility (mole fraction) (in methanol, 308.15 K): 0.00152 | solubility (mole fraction) (in methanol, 313.15 K): 0.00161 | solubility (mole fraction) (in methanol, 318.15 K): 0.0017 | solubility (mole fraction) (in methanol, 323.15 K): 0.00179 | solubility (mole fraction) (in n-propanol, 283.15 K): 1.38e-05 | solubility (mole fraction) (in n-propanol, 288.15 K): 4.22e-05 | solubility (mole fraction) (in n-propanol, 293.15 K): 7.7e-05 | solubility (mole fraction) (in n-propanol, 298.15 K): 0.000116 | solubility (mole fraction) (in n-propanol, 303.15 K): 0.000154 | solubility (mole fraction) (in n-propanol, 308.15 K): 0.000208 | solubility (mole fraction) (in n-propanol, 313.15 K): 0.000246 | solubility (mole fraction) (in n-propanol, 318.15 K): 0.000289 | solubility (mole fraction) (in n-propanol, 323.15 K): 0.000336 | solubility (mole fraction) (in water, 283.15 K): 0.0337 | solubility (mole fraction) (in water, 288.15 K): 0.036 | solubility (mole fraction) (in water, 293.15 K): 0.0394 | solubility (mole fraction) (in water, 298.15 K): 0.0426 | solubility (mole fraction) (in water, 303.15 K): 0.0457 | solubility (mole fraction) (in water, 308.15 K): 0.0489 | solubility (mole fraction) (in water, 313.15 K): 0.0523 | solubility (mole fraction) (in water, 318.15 K): 0.0565 | solubility (mole fraction) (in water, 323.15 K): 0.0608

From BigSolDB 2.1
